Laboratory results reported in PubChem BioAssay (NCI).
Where “and” joins values, the source holds several entries; their conditions need not be identical. Equal entries are not always repeated.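 Cultured in 96-well plates, cells were exposed to test compound for 48 hours across five concentrations. GI50 is the concentration that inhibits growth by half. TGI is the concentration that stops growth completely.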

Assays:
Experiment in all cases: inhibition of tumour cell growth, NCI panel, 48 h
K-562 leukemia = tested on: K-562 leukemia
M14 melanoma = tested on: M14 melanoma
786-0 renal = tested on: 786-0 renal
MOLT-4 leukemia = tested on: MOLT-4 leukemia
UO-31 renal = tested on: UO-31 renal
SNB-19 CNS = tested on: SNB-19 CNS
SNB-75 CNS = tested on: SNB-75 CNS
DU-145 prostate = tested on: DU-145 prostate
HCT-116 colon = tested on: HCT-116 colon
SK-OV-3 ovarian = tested on: SK-OV-3 ovarian

SMILES: COC(=O)c1c[nH]c(=O)[nH]c1=O
- TGI (K-562 leukemia): > 100 µM
- TGI (M14 melanoma): > 100 µM
- TGI (786-0 renal): > 100 µM
- TGI (MOLT-4 leukemia): > 100 µM
- TGI (UO-31 renal): > 100 µM
- TGI (SNB-19 CNS): > 100 µM
- TGI (SNB-75 CNS): > 100 µM
- TGI (DU-145 prostate): > 100 µM
- TGI (HCT-116 colon): > 100 µM

SMILES: COc1ccc(C2OC(=O)c3c2ccc2ccccc32)c(C)c1 (centres undefined)
- TGI (K-562 leukemia): > 100 µM
- TGI (M14 melanoma): > 100 µM
- TGI (786-0 renal): 18.1 µM
- TGI (MOLT-4 leukemia): 37 µM
- TGI (UO-31 renal): > 100 µM
- TGI (SNB-19 CNS): > 100 µM
- TGI (SNB-75 CNS): 30.6 µM
- TGI (HCT-116 colon): > 100 µM

SMILES: Cc1cc(NS(=O)(=O)c2ccc(Nc3c4ccccc4nc4c(C(=O)Nc5ccc(S(=O)(=O)N=C(N)N)cc5)cccc34)cc2)no1
- TGI (K-562 leukemia): > 100 µM
- TGI (M14 melanoma): > 100 µM
- TGI (786-0 renal): > 100 µM
- TGI (MOLT-4 leukemia): > 100 µM
- TGI (UO-31 renal): > 100 µM
- TGI (SK-OV-3 ovarian): > 100 µM
- TGI (SNB-19 CNS): > 100 µM
- TGI (SNB-75 CNS): > 100 µM
- TGI (HCT-116 colon): > 100 µM

SMILES: Cl.[Pt].[c-]1ccccc1-c1ccccn1.c1ccc(P(c2ccccc2)C([PH+](c2ccccc2)c2ccccc2)[PH+](c2ccccc2)c2ccccc2)cc1
- GI50 (K-562 leukemia): 0.658 µM
- TGI (K-562 leukemia): 13.6 µM
- GI50 (786-0 renal): 3.2 µM
- TGI (786-0 renal): 14.4 µM
- GI50 (MOLT-4 leukemia): 2.13 µM
- TGI (MOLT-4 leukemia): 11.6 µM
- GI50 (UO-31 renal): 1.8 µM
- TGI (UO-31 renal): 6.28 µM
- GI50 (SK-OV-3 ovarian): 3.57 µM
- TGI (SK-OV-3 ovarian): > 100 µM
- GI50 (SNB-19 CNS): 0.764 µM
- TGI (SNB-19 CNS): 21.2 µM
- GI50 (SNB-75 CNS): 1.64 µM
- TGI (SNB-75 CNS): 23.5 µM
- GI50 (DU-145 prostate): 1.9 µM
- TGI (DU-145 prostate): 16.4 µM
- GI50 (HCT-116 colon): 1.58 µM
- TGI (HCT-116 colon): 7.11 µM

SMILES: Cn1cnc([N+](=O)[O-])c1Sc1ccccn1
- TGI (K-562 leukemia): > 100 µM
- TGI (M14 melanoma): > 100 µM
- TGI (786-0 renal): > 100 µM
- TGI (MOLT-4 leukemia): > 100 µM
- TGI (UO-31 renal): > 100 µM
- TGI (SK-OV-3 ovarian): > 100 µM
- TGI (SNB-19 CNS): > 100 µM
- TGI (SNB-75 CNS): > 100 µM
- TGI (HCT-116 colon): > 100 µM

SMILES: CC(CN=C(CC(=O)c1ccc(Br)cc1)c1ccccc1)N=C(CC(=O)c1ccc(Br)cc1)c1ccccc1 (centres undefined)
- GI50 (K-562 leukemia): > 100 µM
- TGI (K-562 leukemia): > 100 µM
- GI50 (786-0 renal): 4.2 µM
- TGI (786-0 renal): > 100 µM
- GI50 (MOLT-4 leukemia): 7.95 µM
- TGI (MOLT-4 leukemia): > 100 µM
- GI50 (UO-31 renal): 1.66 µM
- TGI (UO-31 renal): > 100 µM
- GI50 (SK-OV-3 ovarian): 9.05 µM
- TGI (SK-OV-3 ovarian): > 100 µM
- GI50 (SNB-19 CNS): > 100 µM
- TGI (SNB-19 CNS): > 100 µM
- GI50 (SNB-75 CNS): > 100 µM
- TGI (SNB-75 CNS): > 100 µM
- GI50 (DU-145 prostate): 64.4 µM
- TGI (DU-145 prostate): > 100 µM
- GI50 (HCT-116 colon): 2.75 µM
- TGI (HCT-116 colon): > 100 µM

SMILES: C[Si](C)(C)/C=C/CCC(C=O)(CCCl)c1ccccc1 (centres undefined)
- TGI (K-562 leukemia): > 100 µM
- TGI (M14 melanoma): 86.6 µM
- TGI (786-0 renal): 40.8 µM
- TGI (MOLT-4 leukemia): 53.8 µM
- TGI (UO-31 renal): > 100 µM
- TGI (SK-OV-3 ovarian): > 100 µM
- TGI (SNB-19 CNS): > 100 µM
- TGI (SNB-75 CNS): 96.6 µM
- TGI (HCT-116 colon): 32.3 µM

SMILES: O=C1C2c3[nH]c4ccccc4c3[C@@H]3CCCCCCCCCCC3C2C(=O)N1c1ccccc1 (some centres undefined)
- TGI (K-562 leukemia): 29.5 µM
- TGI (M14 melanoma): 34.3 µM
- TGI (786-0 renal): 35.7 µM
- TGI (UO-31 renal): > 100 µM
- TGI (SK-OV-3 ovarian): 23 µM
- TGI (SNB-19 CNS): 30.3 µM
- TGI (SNB-75 CNS): 6.44 µM

SMILES: COC(=O)C[CH](C(=O)OC)[Ge]([CH3])([CH3])[S]c1ccccc1 (centres undefined)
- GI50 (K-562 leukemia): 17.4 µM
- TGI (K-562 leukemia): > 100 µM
- GI50 (M14 melanoma): 21.5 µM
- TGI (M14 melanoma): 57.5 µM
- GI50 (786-0 renal): 15.9 µM
- TGI (786-0 renal): 30.7 µM
- GI50 (MOLT-4 leukemia): 3.37 µM
- TGI (MOLT-4 leukemia): 18.4 µM
- GI50 (UO-31 renal): 7.06 µM
- TGI (UO-31 renal): 21 µM
- GI50 (SK-OV-3 ovarian): 25.8 µM
- TGI (SK-OV-3 ovarian): 67 µM
- GI50 (SNB-19 CNS): 19.5 µM
- TGI (SNB-19 CNS): 49.9 µM
- GI50 (SNB-75 CNS): 22.1 µM
- TGI (SNB-75 CNS): 72.2 µM
- GI50 (HCT-116 colon): 27.9 µM
- TGI (HCT-116 colon): 58.2 µM

SMILES: Cc1c[nH]c2c1C13CC1CN(C(=O)c1cc4cc(NC(=O)c5cc6ccccc6o5)ccc4[nH]1)C3=CC2=O (centres undefined)
- GI50 (K-562 leukemia): > 1.17 ng/mL
- TGI (M14 melanoma): < 0.001 µM
- TGI (786-0 renal): < 0.001 µM
- GI50 (MOLT-4 leukemia): > 1.17 ng/mL
- TGI (MOLT-4 leukemia): 0.0031 µM
- GI50 (UO-31 renal): > 1.17 ng/mL
- GI50 (SK-OV-3 ovarian): > 1.17 ng/mL
- TGI (SK-OV-3 ovarian): 218 ng/mL
- TGI (SNB-19 CNS): 0.00481 µM
- GI50 (HCT-116 colon): > 1.17 ng/mL
- TGI (HCT-116 colon): 11.2 nM and 0.117 µg/mL

SMILES: CC1=NNC(=NCCN(C)C)C/C1=C/c1ccccc1Cl
- TGI (M14 melanoma): > 100 µM
- TGI (786-0 renal): > 100 µM
- TGI (UO-31 renal): > 100 µM
- TGI (SK-OV-3 ovarian): > 100 µM
- TGI (SNB-19 CNS): > 100 µM
- TGI (SNB-75 CNS): > 100 µM
- TGI (HCT-116 colon): > 100 µM

SMILES: N/C(=N\NS(=O)(=O)c1ccccc1)Oc1ccc(Cl)cc1
- TGI (K-562 leukemia): > 100 µM
- TGI (M14 melanoma): > 100 µM
- TGI (786-0 renal): > 100 µM
- TGI (MOLT-4 leukemia): > 100 µM
- TGI (UO-31 renal): > 100 µM
- TGI (SK-OV-3 ovarian): > 100 µM
- TGI (SNB-19 CNS): > 100 µM
- TGI (SNB-75 CNS): > 100 µM
- TGI (HCT-116 colon): > 100 µM

SMILES: COc1cc([C@@H]2c3cc4c(cc3[C@@H](NC(=O)c3ccc(N)cc3)C3COC(=O)[C@@H]32)OCO4)cc(OC)c1O (some centres undefined)
- TGI (K-562 leukemia): 37.7 µM
- TGI (M14 melanoma): > 100 µM
- TGI (786-0 renal): 3.84 µM
- TGI (MOLT-4 leukemia): 3.78 µM
- TGI (UO-31 renal): 31.1 µM
- TGI (SK-OV-3 ovarian): 8.06 µM
- TGI (SNB-19 CNS): 17.4 µM
- TGI (SNB-75 CNS): 6.56 µM
- TGI (HCT-116 colon): 17 µM

SMILES: O=[N+]([O-])c1cccc([N+](=O)[O-])c1S(=O)(=O)c1ccccc1
- TGI (M14 melanoma): 6.59 µM
- TGI (786-0 renal): 5.21 µM
- TGI (UO-31 renal): 3.5 µM
- TGI (SK-OV-3 ovarian): 31.2 µM
- TGI (SNB-19 CNS): 35.3 µM
- TGI (DU-145 prostate): 20 µM
- TGI (HCT-116 colon): 4.04 µM

SMILES: CCN(CC)CCN1C(=O)c2c(c(C)c3c(oc4cc(O)ccc43)c2C)C1=O
- GI50 (K-562 leukemia): 2.3 µM
- TGI (K-562 leukemia): > 100 µM
- GI50 (M14 melanoma): 1.81 µM
- TGI (M14 melanoma): 3.63 µM
- GI50 (786-0 renal): 1.62 µM
- TGI (786-0 renal): 3.2 µM
- GI50 (UO-31 renal): 1.48 µM
- TGI (UO-31 renal): 2.81 µM
- GI50 (SK-OV-3 ovarian): 1.83 µM
- TGI (SK-OV-3 ovarian): 3.36 µM
- GI50 (SNB-19 CNS): 1.68 µM
- TGI (SNB-19 CNS): 3.21 µM
- GI50 (SNB-75 CNS): 1.44 µM
- TGI (SNB-75 CNS): 2.8 µM
- GI50 (DU-145 prostate): 1.72 µM
- TGI (DU-145 prostate): 3.41 µM

SMILES: Cc1nc(C)c(C(=O)Nc2cccc3c2C(=O)NC3=O)cc1C(=O)Nc1cccc2c1C(=O)NC2=O
- TGI (K-562 leukemia): > 100 µM
- TGI (M14 melanoma): > 100 µM
- TGI (786-0 renal): > 100 µM
- TGI (MOLT-4 leukemia): > 100 µM
- TGI (UO-31 renal): > 100 µM
- TGI (SK-OV-3 ovarian): > 100 µM
- TGI (SNB-19 CNS): > 100 µM
- TGI (SNB-75 CNS): > 100 µM
- TGI (HCT-116 colon): > 100 µM

SMILES: c1ccc2c(CNCCCCCCNCc3cccc4ccccc34)cccc2c1
- TGI (K-562 leukemia): 3.22 µM
- TGI (M14 melanoma): 3.25 µM
- TGI (786-0 renal): 26.1 µM
- TGI (MOLT-4 leukemia): 6.46 µM
- TGI (UO-31 renal): 23.9 µM
- TGI (SK-OV-3 ovarian): 31.5 µM
- TGI (SNB-75 CNS): 6.68 µM
- TGI (HCT-116 colon): 4.35 µM

SMILES: CC#C[C@@]1(O)CCCC[C@@H]1O
- TGI (K-562 leukemia): > 100 µM
- TGI (M14 melanoma): > 100 µM
- TGI (786-0 renal): > 100 µM
- TGI (MOLT-4 leukemia): > 100 µM
- TGI (UO-31 renal): > 100 µM
- TGI (SK-OV-3 ovarian): > 100 µM
- TGI (SNB-19 CNS): > 100 µM
- TGI (SNB-75 CNS): > 100 µM
- TGI (HCT-116 colon): > 100 µM

SMILES: N#Cc1cccc(NC(=O)c2ccc(C(=O)O)c(C(=O)c3ccc(C(=O)O)c(C(=O)Nc4cccc(C#N)c4)c3)c2)c1
- TGI (K-562 leukemia): > 100 µM
- TGI (M14 melanoma): > 100 µM
- TGI (786-0 renal): > 100 µM
- TGI (MOLT-4 leukemia): > 100 µM
- TGI (UO-31 renal): > 100 µM
- TGI (SK-OV-3 ovarian): > 100 µM
- TGI (SNB-19 CNS): > 100 µM
- TGI (SNB-75 CNS): > 100 µM
- TGI (HCT-116 colon): > 100 µM
